Measurements: patent US20090088482A1, “Compositions and Methods For Treating Heart Failure” (The Trustees Of Columbia University In The City New York, priority 2003, published 2009)

Experiments:
Format in all cases: in vivo, Sprague-Dawley rats
[1] = tested on: rats with HF induced by LAD ligation; assay: Body weight and heart weight in LAD ligation ischemic HF rats (Example 5); conditions: mean ± SD, 9 weeks oral therapy; for Heart Wt: HF 2.16 ± 0.33, Sham 1.72 ± 0.09; for % Δ Weight (percentage change in pre-treatment to post-treatment weights): clenbuterol 1 mg/kg/day, metoprolol 200 mg/kg/day, HF 33.8 ± 4.79, Sham 76.1 ± 19.3
Experimental: All studies were performed in compliance with the Guide for the Care and Use of Laboratory Animals (NRC 1996) and were approved by the Institutional Animal Care and Use Committee of Columbia University. Sprague-Dawley rats (Charles River Laboratories, Wilmington, Mass.) weighing 250 to 300 g were used for all experiments. Food and water were provided ad libitum, with rats housed in a light- and temperature-controlled room over the 12-week study period.
(§1) After the induction of general anesthesia with the use of intraperitoneal ketamine (75 mg/kg; Fort Dodge Animal Health, Fort Dodge, Iowa) and xylazine (5 mg/kg; Lloyd Laboratories, Shenandoah, Iowa), endotracheal intubation with a 16-guage angiocathether was performed. Rats were supported by a small animal ventilator (Harvard Apparatus, Holliston, Mass.). After performing a left thoracotomy, a sham operation (pericardiectomy only) or left anterior descending artery (LAD) ligation with a 7-0 polypropylene suture was performed. Subsequently, a chest tube (16-guage angiocathether) was placed in the left pleural space prior to closing the incision in three layers. Finally, the chest tube was used to aspirate the pleural cavity and removed after extubation.
(§2) A total of 69 rats were used in this study. LAD ligation surgery was performed in 60 rats, of which 37 (62%) survived three weeks post-surgery. Another 9 rats underwent a sham operation (group Sham), with 7 (78%) survivors. Three weeks post-operatively, echocardiography was performed to establish the baseline level of HF (as measured by fractional shortening). The LAD ligation rats were divided into 4 treatment groups matched for the degree of HF and were randomly assigned to one of the following therapies for 9 additional weeks: (1) rats receiving no therapy (group HF, n=9); (2) rats receiving high-dose clenbuterol at 1 mg/kg/day (group Clen, n=9); (3) rats receiving high-dose metoprolol at 200 mg/kg/day (group Meto, n=9); or (4) rats receiving concurrent high-dose clenbuterol at 1 mg/kg/day and high-dose metoprolol therapy at 200 mg/kg/day (group Clen+Meto, n=10).
Clenbuterol (ICN Biomedicals, Aurora, Ohio) was sonicated and subsequently dissolved in the drinking water. Metoprolol (Sigma-Aldrich, St. Louis, Mo.) was dissolved in the drinking water either alone or in combination with clenbuterol for the Clen+Meto group. The concentrations of clenbuterol and metoprolol were varied to keep the study drug dose delivered within a narrow therapeutic window based on daily water consumption. […]
Body weight was measured pre-surgery and 3 and 12 weeks post-surgery. Heart weight was measured immediately after the heart was excised. The ratio of body weight to heart weight was subsequently calculated.

[2] = tested on: rats with HF induced by LAD ligation; assay: Hemodynamic measurements (Millar catheter) in LAD ligation ischemic HF rats (Example 5); conditions: mean ± SD, after 9 weeks oral therapy; for MAP: HF 47.2 ± 8.85, Sham 39.8 ± 5.56; for LVSP: HF 113 ± 10.3, Sham 116 ± 17.3; for HR: HF 302 ± 19.1, Sham 291 ± 52.2; for Maximum dP/dt: HF 4609 ± 583, Sham 6700 ± 1706; for Minimum dP/dt: HF −3854 ± 563, Sham −6458 ± 1799
Experimental: as §1
as §2, with “LAD ligation surgery was performed in 60 rats, of which 37 (62%) survived three weeks post-surgery. Another 9 rats underwent a sham operation (group Sham), with 7 (78%) survivors.” left out
Clenbuterol (ICN Biomedicals, Aurora, Ohio) was sonicated and subsequently dissolved in the drinking water. Metoprolol (Sigma-Aldrich, St. Louis, Mo.) was dissolved in the drinking water either alone or in combination with clenbuterol for the Clen+Meto group. The concentrations of clenbuterol and metoprolol were varied to keep the study drug dose delivered within a narrow therapeutic window based on daily water consumption. […] The treated drinking water was made fresh every 48-72 hours. Oral pharmacotherapy was continued for a total of 9 weeks.
In the terminal experiments 12 weeks post-surgery, the rats were anesthetized with inhaled isoflurane mixed with oxygen. A 2-French Millar catheter (Millar Instruments, Houston, Tex.) was inserted into the right carotid artery and pressure measurements collected and saved as the catheter was advanced into the left ventricle. The heart was quickly arrested in diastole and excised. Hearts were subsequently weighed and used for the ex vivo determination of LV end-diastolic pressure-volume relationships (EDPVR). Using Chart 4 (version 4.2.4, ADInstruments, Colorado Springs, Colo.), left ventricular end-diastolic pressure (LVEDP), left ventricular systolic pressure (LVSP), mean aortic pressure (MAoP), heart rate, and maximum and minimum LV dP/dt (dP/dtmax and dP/dtmin) were later obtained from stored hemodynamic recordings by a single individual (S.X.), who was blinded to animals' group assignments.

[3] = tested on: myocytes (TUNEL, 8-oxoG, MYH, OGG1 staining); assay: Quantitative immunohistochemistry staining of apoptosis, DNA damage and DNA repair markers (Example 5); conditions: mean ± SD; for 8-oxoG: DNA damage product, HF 18 ± 4, Sham 0.5 ± 0.1; for OGG1: DNA repair marker, HF 0.5 ± 0.1, Sham 0.2 ± 0.1; for TUNEL: percentage of myocytes with nuclear staining, HF 21 ± 4, Sham 0.5 ± 0.1; for MYH (score): score 0 = 0%, 1 = 0-15%, 2 = 15-30%, 3 = 30-50%, 4 = >50% positive, HF 1.4 ± 0.5, Sham 0.6 ± 0.2
Experimental: as §2
A short-axis section of the heart at the point of maximal infarction was fixed in 4% paraformaldehyde solution for 12 hours. Sections were then embedded in paraffin and 5 μm slices used for trichrome staining. The infarct size was determined as a percentage of the LV circumference under light microscopy by a single individual (S.X.) blinded to group assignment. The remaining heart tissue was flash-frozen in liquid nitrogen and stored at −80° C. for Western blot analysis.
Histological sections (5 μm thick) were used to perform immunohistochemistry for: terminal deoxynucleotidyltransferase end labeling (TUNEL; apoptosis marker), 8-oxoG (DNA damage product), MYH (DNA mismatch repair enzyme), and OGG1 (DNA base excision repair enzyme). The percentage of myocytes with nuclear staining was quantified in a blinded manner. Because OGG1 is found both in the nucleus and cytoplasm, a scoring system was utilized to semi-quantitatively describe the staining observed: 0=no staining; 1=0 to 15% staining; 2=15 to 30% staining; 3=30 to 50% staining; and 4=>50% staining of the nucleus and cytoplasm.

Compound	Heart Wt [1]	% Δ Weight (percentage change in pre-treatment to post-treatment weights) [1]	MAP [2]	LVSP [2]	HR [2]	Maximum dP/dt [2]	Minimum dP/dt [2]	8-oxoG [3]	OGG1 [3]	TUNEL [3]	MYH (score) [3]
CC(C)(C)NCC(O)c1cc(Cl)c(N)c(Cl)c1 (stereo not shown) [Clen, clenbuterol]	2.64 ± 0.41 § † gm	49.9 ± 7.18 † %	44.2 ± 6.06 mmHg	109 ± 10.7 mmHg	281 ± 11.2 bpm	4933 ± 596 mmHg/s	3901 ± 694 mmHg/s	10 ± 2 † %	8.2 ± 2.2 † %	11 ± 3 † %	2.8 ± 0.5 † score
COCCc1ccc(OCC(O)CNC(C)C)cc1 (stereo not shown) [Meto, metoprolol]	2.17 ± 0.34 gm	32.3 ± 7.16 %	42.7 ± 5.38 mmHg	107 ± 9.27 mmHg	243 ± 19.4 bpm	5462 ± 541 mmHg/s	−4032 ± 830 mmHg/s	12 ± 3 † %	6.4 ± 1.5 † %	12 ± 4 † %	2.6 ± 0.4 † score
